Laboratory results as given in patent US20260069584A1, “METHODS OF TREATING CHRONIC MYELOID LEUKEMIA USING THE TYROSINE KINASE INHIBITOR VODOBATINIB” (Sun Pharma Advanced Research Company Ltd., priority 2022, published 2026).
“And” between values parts separate entries of the source, which are not always exact repeats. Identical values can stand only once.

Columns and labels:
[1] = tested on: Ph+ CML (CP CML, AP CML, and BP CML); assay: Phase 2 open-label study (Part C) in CML resistant or intolerant to ≥3 prior TKIs including ponatinib: disease response; type: in vivo, human
Procedure: A multicenter open-label study in subjects with CML (CP CML, AP CML, and BP CML) who documented resistance or intolerance to more than or equal to 3 prior TKIs one of which included ponatinib was performed. The subjects for this were grouped as follows: • a) Cohort A—Ph+ CML: Chronic phase (CP CML) cohort • b) Cohort B—Ph+ CML: Accelerated phase (AP) cohort • c) Cohort C—Ph+ CML: Blast phase (BP) cohort.
The primary objective of this study was to evaluate the efficacy of the compound of Formula I in CP CML patients by cytogenetic outcomes and in AP CML and BP CML patients by hematologic outcomes. Secondary objectives included evaluation of anti-leukemic efficacy of compound of Formula I by molecular outcomes, hematological outcomes in CP CML patients, and by cytogenetic outcomes in AP CML and BP CML; time to first hematologic response; duration of response; progression-free survival (PFS) and overall survival (OS), population PK of the compound of Formula I and safety.
The selection criteria for subjects (Both inclusion and exclusion) were the same as those set forth above study, except for the following: Subjects had to be previously treated with ≥3 prior TKIs including the 3rd generation TKI, ponatinib; subjects with Ph+ ALL were not included in this study; subjects with presence of T3151 mutations were excluded in the study. Limited to no response on a TKI therapy is reported in CML patients post-ponatinib treatment (Leuk Lymphoma 2018 June; 59 (6): 1312-1322).
Patients were followed for survival by telephone survey.
The Compound of Formula I with 174 mg as capsules was administered orally once daily continuously in 4-week cycles. Patients self-administered the compound of Formula I on an outpatient basis at approximately the same time each morning after overnight fasting or fasting ˜2 hours before and after dosing.
Bone marrow aspirate samples were sent for review of cytogenetics by conventional Giemsa staining method (karyotyping). Fluorescence in situ hybridization (FISH) was performed on bone marrow aspirates only in cases of subjects who had achieved complete cytogenetic response (confirmed by karyotyping) with the studied drug and who had minimum residual disease. FISH was also used if a sufficient sample was not available for conducting the Giemsa staining method (karyotyping).
Standard cytogenetic methods were used to determine the presence of the Ph+ and its presence (percentage) in the bone marrow. At least 20 cells in metaphase were evaluated for karyotyping. Bone marrow cytogenetics was scheduled to be performed within 7 days of the scheduled date irrespective of missed doses or disease or dose-associated AEs.
Molecular response monitoring (MMR) using PCR for BCR-ABL copy number was performed on the collected blood samples and was assessed using the international scale (IS).
The hematologic response was evaluated by peripheral blood utilizing local laboratory results.

[2] = tested on: Ph+ CML (CP CML, AP CML and BP CML) and Ph+ ALL; assay: Parts B and C pooled (n=59): disease response; type: in vivo, human
Procedure: Additionally, 71.2% of all the subjects were refractory and/or intolerant to ≥3 TKIs. The MCyR and MMR in subjects with CP CML were 63% and 34.8%, respectively, and those with more aggressive disease viz. AP CML, BP CML and Ph+ ALL were 53.8% and 30.8%, respectively.
The MTD of the compound of Formula I was 204 mg while RP2D was 174 mg QD. Anti-leukemic activity in the form of hematological, cytogenetic and molecular responses was reported across Parts B and C (n=59). Major cytogenetic responses were reported in 61% of subjects while major molecular responses were reported in 33.9% of subjects across doses. […] There is limited evidence of activity in the CML literature in such a heavily pre-treated population.

[3] = Oral toxicity study in Wistar Rats; conditions: rat, in vivo
[4] = clinical; conditions: human, in vivo, po
Procedure: A±5 minutes window permitted till 4 hours PK sample collection. A±10 minutes window permitted for subsequent PK sample collection. Days 3, 8, 15, and 22 of Cycle 1:30 (±10) minutes Predose only. […] A #5 minutes window permitted till 4 hours PK sample collection. A #10 minutes window permitted for subsequent PK sample collection. Days 8, 15, and 22 of Cycle 2:30 (±10) minutes Predose only. Cycle 3 onwards: Predose samples on Day 1.
Pharmacokinetic analysis was performed using non-compartmental analysis. The actual elapsed time from dose was used in the final PK parameter calculations. Plasma concentrations and PK parameters for the compound of Formula I were listed and summarized by dose cohort using descriptive statistics (n, mean, standard deviation, minimum, median, and maximum). Geometric mean and geometric coefficient of variation were calculated for PK parameters. Additionally, mean concentration profiles by dose cohort and cycle were illustrated. Dose proportionality of Cmax and AUC(0-24) was assessed graphically for Cycle 1 and Cycle 2. Dose proportionality was statistically evaluated using the power model approach, whenever the number of patients was at least 3 for a given cohort. Time to steady-state (Ctrough) was evaluated graphically. Differences among dose levels in CL/F and V/F, and dose-normalized Cmax and AUC(0-24) were explored using an analysis of variance.
The PK parameters for the study were summarized by treatment using descriptive (N, n, mean, standard deviation [SD], coefficient of variation [CV] % minimum, median, maximum, geometric mean and CV %) statistics, except for Tmax. For Tmax, the number of subjects, minimum, median, and maximum are reported.

Cc1ccc(C(=O)NNC(=O)c2c(C)cccc2Cl)cc1C#Cc1cnc2ccccc2c1 [compound of Formula I, N′-(2-chloro-6-methylbenzoyl)-4-methyl-3-[2-(3-quinolyl)ethynyl]-benzohydrazide]
Best Cytogenetic Response: Complete Cytogenetic Response ([1]; 174 mg (N = 7)): 1 (14.3%)
Best Cytogenetic Response: Major Cytogenetic Response ([1]; 174 mg (N = 7)): 2 (28.6%)
Best Cytogenetic Response: Minimal Cytogenetic Response ([1]; 174 mg (N = 7)): 0
Best Cytogenetic Response: Minor Cytogenetic Response ([1]; 174 mg (N = 7)): 0
Best Cytogenetic Response: No Response ([1]; 174 mg (N = 7)): 2 (28.6%)
Best Cytogenetic Response: Partial Cytogenetic Response ([1]; 174 mg (N = 7)): 1 (14.3%)
Best Hematologic Response: Complete Hematologic Response ([1]; 174 mg (N = 7)): 6 (85.7%)
Best Hematologic Response: Major Hematologic Response ([1]; 174 mg (N = 7)): 6 (85.7%)
Best Hematologic Response: No Evidence of Leukemia ([1]; 174 mg (N = 7)): 0
Best Hematologic Response: No Response ([1]; 174 mg (N = 7)): 1 (14.3%)
Best Molecular Response: Complete Response ([1]; 174 mg (N = 7)): 0
Best Molecular Response: Major Response ([1]; 174 mg (N = 7)): 1 (14.3%)
Best Molecular Response: No Response ([1]; 174 mg (N = 7)): 4 (57.1%)
Major molecular response (MMR) as best response ([1]; 1 of the 7 enrolled subjects, 174 mg): 14.3%
Complete hematological response (CHR) as best response ([1]; 2 of the 2 AP-CML enrolled subjects): 100%
Major cytogenetic response (MCyR) as best response ([1]; 2 of the 7 enrolled subjects, 174 mg): 28.6%
major hematological response (MaHR) as best response ([1]; 6 of the 7 enrolled subjects, 174 mg): 85.7%
Major molecular response (MMR) as best response ([1]; 6 of the 13 enrolled CP-CML subjects): 46.2%
achieved MaHR in the study ([1]; 7 enrolled subjects, 174 mg): 5 subjects
came into the study in MaHR and maintained it ([1]; 7 enrolled subjects, 174 mg): 1 subject
Major cytogenetic response (MCyR) as best response ([1]; 11 CP-CML enrolled subjects): 84.6%
Complete hematological response (CHR) as best response ([1]; 13 of the 15 CP-CML enrolled subjects): 86.7%
achieved CHR in study ([1]; CP-CML, of 13): 9 subjects
came into the study in CHR and maintained it ([1]; CP-CML, of 13): 4 subjects
developed CCyR ([1]; CP-CML, of the 13 subjects): 61.5%
major molecular response deepened to complete molecular response ([2]; 174 mg initial dose, 2 subjects): 9.1%
complete hematological response ([2]; 174 mg initial dose, 20 out of 24 subjects): 83.3%
MMR ([2]; 29 subjects with prior ponatinib (n=11 of 29)): 37.93% and 37.9%
MCyR ([2]; 29 subjects with prior ponatinib (n=15 of 29)): 51.7%
MCyR ([2]; AP CML, BP CML and Ph+ ALL): 53.8%
MMR ([2]; AP CML, BP CML and Ph+ ALL): 30.8%
major cytogenetic response ([2]; RP2D of 174 mg, independent of prior ponatinib exposure): 50%
major cytogenetic response (MCyR) ([2]; all subjects, across doses): 61%
major molecular response (MMR) ([2]; all subjects, across doses): 33.9%
MCyR ([2]; subjects with CP CML): 63%
MMR ([2]; subjects with CP CML): 34.8%
NOAEL [3]: 100 mg/kg/day
Tmax [4]: 1.5 to 2.5 h
AUC(0-t) ([4]; 204 mg): 27500 ng·h/mL
Cmax ([4]; 204 mg): 3310 ng/mL
